# Experiments:
# [1] = in vivo; cited from earlier work
# gastroduodenal mucosa = settings: twice daily for five days
# gastric pH = settings: during the 8-10 hours following naproxen sodium dosing
# intragastric pH = assay: Emax model: esomeprazole AUC0-24 vs percent time intragastric pH>4.0 on Day 9 (Example 11); format: in vivo, human
compound,measurement,setting,value
Cc1cccc(Nc2ccccc2C(=O)O)c1C [mefenamic acid],half-life,[1],up to 4 hours
CC(C(=O)O)c1ccc(-c2ccccc2)c(F)c1 (stereo not drawn) [flurbiprofen],half-life,[1],about 6 hours
COc1ccc2cc([C@H](C)C(=O)O)ccc2c1 [naproxen sodium],patients presenting with gastroduodenal ulcers at the end of the study,gastroduodenal mucosa,33%
same,subjects with Lanza grade 3 or 4 damage,gastroduodenal mucosa; Day 5 endoscopy,100%
same,time the pH was greater than 4,gastric pH,4%
O=C(c1ccccc1)c1ccc2n1CCC2C(=O)O (stereo not drawn) [ketorolac],half-life,[1],8 to 9 h
COc1ccc2nc([S@@+]([O-])Cc3ncc(C)c(OC)c3C)[nH]c2c1 [esomeprazole],"Emax, maximal effect: % of time with intragastric pH>4.0 over the daily interval at steady state",intragastric pH; Day 9,90.4%
same,AUC0-24 value required to achieve half (or 50%) of the maximal response (EC50),"intragastric pH; Day 9, plasma esomeprazole",713 ng·h/mL
CCc1cccc2c3c([nH]c12)C(CC)(CC(=O)O)OCC3 (stereo not drawn) [etodolac],half-life,[1],about 7 hours

# Reference: patent publication US20100172983A1 (priority 2001, published 2010)
